{"source": "patent US20250114367A1", "about": "“METHOD OF TREATING HAIR LOSS DISORDERS” (Sun Pharmaceutical Industries, Inc., priority 2023, published 2025)", "origin": "cited, not measured here", "test_system": "subjects with AA", "details": "ritlecitinib 50 mg; up to 48 weeks; FIG. 13C; cited from earlier work"}
{"molecule": "C=CC(=O)N1C[C@H](Nc2ncnc3[nH]ccc23)CC[C@@H]1C", "note": "[ritlecitinib]", "values": [{"measurement": "proportion of participants achieving SALT ≤20", "result": "≤ 50", "unit": "%"}]}
